From patent US20250325552A1, “SUBSTITUTED THIADIAZOLYL DERIVATIVES AS DNA POLYMERASE THETA INHIBITORS” (IDEAYA Biosciences, Inc., priority 2020, published 2025)

molecular target: T1, Polθ theta (1-899) (hPolQ) (Homo sapiens (Human), UniProt O75417); assay: Biological Assay 2: Polθ ATPase activity, NADH oxidation-coupled enzymatic assay (5 nM enzyme, 120 min); format: biochemical; conditions: Polθ (1-899) 5 nM, 100 μM ATP, 300 nM dT50 ssDNA; Examples 269 to 271; read-out: ATPase NADH coupling:Standard Screening:hPolQ IC50
Protocol: The ability of the compounds (Example 269 to Example 271) of described herein to inhibit ATPase activity of Polθ theta (1-899) was determined using the assay described below.
Polθ Theta ATPase activity was determined by measuring the rate of ATP turn over in a NADH oxidation-coupled enzymatic assay. 11-point dilution series of compounds were used in a 384 well format for the inhibition assays. Polθ theta (1-899) (5 nM) in assay buffer (20 mM Tris HCl (pH 7.80), 80 mM KCl, 10 mM MgCl2, 1 mM DTT, 0.01% BSA, 0.01% Tween, 5% glycerol) was transferred to the test wells (20 μL), except the low control wells (20 μL of assay buffer was added to the low control wells). The plate was then incubated at room temperature for 15 min. An equal volume (20 μL) of 100 μM ATP, 300 nM dT50 (single-stranded DNA (ssDNA) containing 50 thymine bases), 300 μM NADH, 6 mM PEP, 10 U/mL lactate dehydrogenase and U/mL pyruvate kinase in assay buffer was added to all the test wells. The plate was then centrifuged at 1000 rpm for 1 min. The reaction was monitored for 120 min by measuring absorbance (λ=340 nm) in a PHERAstar FSX multimode plate reader every 3 minute. The high control (DMSO with enzyme) with low absorbance intensity represents no inhibition of ATPase reaction while the low control (DMSO with buffer) with high absorbance intensity represents full inhibition of ATPase activity. Slope of the reaction progress curves were used to calculate the rate of ATP hydrolysis. The rates were used to determine the percent inhibition using a four-parameter inhibition model to generate IC50, Hill slope and max inhibition.

T1 sequence (O75417 1-899): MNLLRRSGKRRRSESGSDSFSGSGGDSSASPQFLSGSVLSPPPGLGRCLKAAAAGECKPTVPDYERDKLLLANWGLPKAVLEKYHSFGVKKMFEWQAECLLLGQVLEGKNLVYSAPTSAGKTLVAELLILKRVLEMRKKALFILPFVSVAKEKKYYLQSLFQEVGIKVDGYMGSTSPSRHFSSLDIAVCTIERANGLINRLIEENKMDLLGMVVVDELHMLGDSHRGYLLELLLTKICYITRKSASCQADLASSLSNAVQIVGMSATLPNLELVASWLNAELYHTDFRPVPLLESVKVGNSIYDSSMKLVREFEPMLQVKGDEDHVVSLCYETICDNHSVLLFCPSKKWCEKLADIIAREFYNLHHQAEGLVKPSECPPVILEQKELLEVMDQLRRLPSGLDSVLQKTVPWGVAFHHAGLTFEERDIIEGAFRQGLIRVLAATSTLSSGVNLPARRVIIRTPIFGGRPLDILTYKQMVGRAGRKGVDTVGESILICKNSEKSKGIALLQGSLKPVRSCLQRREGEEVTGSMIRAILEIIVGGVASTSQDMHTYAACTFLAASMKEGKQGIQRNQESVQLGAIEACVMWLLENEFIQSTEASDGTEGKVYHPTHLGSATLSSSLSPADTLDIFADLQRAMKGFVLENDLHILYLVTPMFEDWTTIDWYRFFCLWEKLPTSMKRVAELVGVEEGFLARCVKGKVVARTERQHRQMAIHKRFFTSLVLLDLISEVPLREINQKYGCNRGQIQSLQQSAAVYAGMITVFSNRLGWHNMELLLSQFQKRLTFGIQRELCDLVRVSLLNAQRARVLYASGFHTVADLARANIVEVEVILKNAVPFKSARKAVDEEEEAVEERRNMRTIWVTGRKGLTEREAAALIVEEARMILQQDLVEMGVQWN

Row | IC50 [µM] | Structure (SMILES)
1 | ≤ 0.2 | COc1cnc(Cl)cc1-c1cc(C)ncc1C(=O)Nc1nnc(OCC2(F)CN(C)C2)s1 [Example 269, 2′-chloro-N-(5-((3-fluoro-1-methylazetidin-3-yl)methoxy)-1,3,4-thiadiazol-2-yl)-5′-methoxy-6-methyl-(4,4′-bipyridine)-3-carboxamide]
2 | 1 to 10 | COc1cnc(Cl)cc1-c1cc(C)ncc1C(=O)Nc1nnc(OC[C@@H]2CCN(C(C)=O)C2)s1 [Example 270, (R)—N-(5-((1-acetylpyrrolidin-3-yl)methoxy)-1,3,4-thiadiazol-2-yl)-2′-chloro-5′-methoxy-6-methyl-(4,4′-bipyridine)-3-carboxamide]
3 | ≤ 0.2 | COc1cnc(Cl)cc1-c1cc(C)ncc1C(=O)Nc1nnc(OCC(C)(C)N2CCNC2=O)s1 [Example 271, 2′-chloro-5′-methoxy-6-methyl-N-(5-(2-methyl-2-(2-oxoimidazolidin-1-yl)propoxy)-1,3,4-thiadiazol-2-yl)-(4,4′-bipyridine)-3-carboxamide]

molecular target: T1, Polθ theta (1-899) (hPolQ); assay: Biological Assay 1: Polθ ATPase activity, NADH oxidation-coupled enzymatic assay (10 nM enzyme, 30 min); format: biochemical; conditions: Polθ (1-899) 10 nM, 100 μM ATP, 300 nM dT50 ssDNA; Examples 1 to 268; read-out: ATPase NADH coupling:Standard Screening:hPolQ IC50
How it was run: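 Polθ (1-899) at 10 nM was preincubated with compound for 15 min at room temperature in 20 mM Tris pH 7.80, 80 mM KCl, 10 mM MgCl2. An equal volume of 100 μM ATP, 300 nM dT50 ssDNA and a PK/LDH–NADH coupling system was then added. A340 was read each minute for 30 min. IC50 came from rate slopes over 10-point series with a four-parameter fit.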

Row | Structure (SMILES) | IC50 [µM]
4 | COc1ccccc1-c1cc(C)ncc1C(=O)Nc1nnc(O[C@H](CO)c2ccc(Cl)cn2)s1 [Example 30, (S)—N-(5-(1-(5-chloropyridin-2-yl)-2-hydroxyethoxy)-1,3,4-thiadiazol-2-yl)-4-(2-methoxyphenyl)-6-methylnicotinamide] | 0.5 to 1
5 | COc1cnc(Cl)cc1-c1cc(C)ncc1C(=O)Nc1nnc(OC[C@@H]2COC(C)(C)CO2)s1 (single isomer, unassigned) [Example 222] | ≤ 0.2
6 | COc1cnc(C)c(F)c1-c1cc(C)ncc1C(=O)Nc1nnc(OC[C@H]2CCOC2)s1 [Example 249, 3′-fluoro-5′-methoxy-2′,6-dimethyl-N-(5-(((S)-tetrahydrofuran-3-yl)methoxy)-1,3,4-thiadiazol-2-yl)-(4,4′-bipyridine)-3-carboxamide] | ≤ 0.2
7 | Cc1cc(-c2cc(Cl)ncc2OC(F)F)c(C(=O)Nc2nnc(OC[C@H]3CC[C@H](O)CC3)s2)cn1 [Example 243, 2′-chloro-5′-(difluoromethoxy)-N-(5-(((1r,4r)-4-hydroxycyclohexyl)methoxy)-1,3,4-thiadiazol-2-yl)-6-methyl-(4,4′-bipyridine)-3-carboxamide] | ≤ 0.2
8 | COc1cccc(F)c1-c1cc(C)ncc1C(=O)Nc1nnc(OCc2ccc([S@@](C)(=N)=O)cc2)s1 [Example 115, 4-(2-fluoro-6-methoxyphenyl)-6-methyl-N-(5-((4-((S)—S-methylsulfonimidoyl)benzyl)oxy)-1,3,4-thiadiazol-2-yl)nicotinamide] | ≤ 0.2
9 | COc1cccc(F)c1-c1cc(C)ncc1C(=O)Nc1nnc(OCC23CC(CO)(C2)C3)s1 [Example 132, 4-(2-fluoro-6-methoxyphenyl)-N-(5-((3-(hydroxymethyl)bicyclo(1.1.1)pentan-1-yl)methoxy)-1,3,4-thiadiazol-2-yl)-6-methylpyridine-3-carboxamide] | ≤ 0.2
10 | COc1cnc(C)c(F)c1-c1cc(C)ncc1C(=O)Nc1nnc(OC[C@H]2CC[C@H](O)CC2)s1 [Example 212, 3′-fluoro-N-(5-(((1r,4r)-4-hydroxycyclohexyl)methoxy)-1,3,4-thiadiazol-2-yl)-5′-methoxy-2′,6-dimethyl-(4,4′-bipyridine)-3-carboxamide] | ≤ 0.2
11 | COc1cccc(F)c1-c1cc(C)ncc1C(=O)Nc1nnc(OCC23CC(C(C)(C)O)(C2)C3)s1 [Example 103, 4-(2-fluoro-6-methoxyphenyl)-N-(5-((3-(2-hydroxypropan-2-yl)bicyclo(1.1.1)pentan-1-yl)methoxy)-1,3,4-thiadiazol-2-yl)-6-methylpyridine-3-carboxamide] | ≤ 0.2
12 | COc1cnc(Cl)c(F)c1-c1cc(C)ncc1C(=O)Nc1nnc(OCC2CCOC2)s1 (stereo in doubt) [Example 184, 2′-chloro-3′-fluoro-5′-methoxy-6-methyl-N-(5-(((S)-tetrahydrofuran-3-yl)methoxy)-1,3,4-thiadiazol-2-yl)-(4,4′-bipyridine)-3-carboxamide] | ≤ 0.2
13 | COc1cnc(Cl)cc1-c1cc(C)ncc1C(=O)Nc1nnc(OC[C@@]23COC[C@@H]2C3)s1 (single isomer, unassigned) [Example 230] | ≤ 0.2

Continued, values first:

Row | IC50 [µM] | Structure (SMILES)
14 | ≤ 0.2 | COc1cnc(C)cc1-c1cc(C)ncc1C(=O)Nc1nnc(OCC2CC3(CC(O)C3)C2)s1 (centres unmarked) [Example 139, N-(5-((6-hydroxyspiro[3.3]heptan-2-yl)methoxy)-1,3,4-thiadiazol-2-yl)-5′-methoxy-2′,6-dimethyl-[4,4′-bipyridine]-3-carboxamide]
15 | ≤ 0.2 | Cc1cc(-c2ccccc2OC(F)F)c(C(=O)Nc2nnc(OCc3ccc(CO)cn3)s2)cn1 [Example 17, 4-(2-(difluoromethoxy)phenyl)-N-(5-((5-(hydroxymethyl)pyridin-2-yl)methoxy)-1,3,4-thiadiazol-2-yl)-6-methylpyridine-3-carboxamide]
16 | ≤ 0.2 | COc1cnc(Cl)cc1-c1cc(C)ncc1C(=O)Nc1nnc(OC[C@H]2CO[C@@H](C)C2)s1 (single isomer, unassigned) [Example 251]
17 | ≤ 0.2 | COc1cnc(C)cc1-c1cc(C)ncc1C(=O)Nc1nnc(OC[C@H]2CC[C@@H](O)CC2)s1 [Example 127, N-(5-(((1s,4s)-4-hydroxycyclohexyl)methoxy)-1,3,4-thiadiazol-2-yl)-5′-methoxy-2′,6-dimethyl-[4,4′-bipyridine]-3-carboxamide]
18 | ≤ 0.2 | COc1cnc(C)cc1-c1cc(C)ncc1C(=O)Nc1nnc(OCc2ccc(C(C)(C)OC)cn2)s1 [Example 126, 5′-methoxy-N-(5-((5-(2-methoxypropan-2-yl)pyridin-2-yl)methoxy)-1,3,4-thiadiazol-2-yl)-2′,6-dimethyl-(4,4′-bipyridine)-3-carboxamide]
19 | ≤ 0.2 | COc1ccc(Cl)cc1-c1cc(C)ncc1C(=O)Nc1nnc(OCc2ccc(C(C)(C)O)cn2)s1 [Example 96, 4-(5-chloro-2-methoxyphenyl)-N-(5-((5-(2-hydroxypropan-2-yl)pyridin-2-yl)methoxy)-1,3,4-thiadiazol-2-yl)-6-methylnicotinamide]
20 | ≤ 0.2 | COc1cnc(Cl)cc1-c1cc(C)ncc1C(=O)Nc1nnc(OC[C@H]2C[C@@H]2F)s1 (stereo in doubt) [Example 207, 2′-chloro-N-(5-(((1R,2S)-2-fluorocyclopropyl)methoxy)-1,3,4-thiadiazol-2-yl)-5′-methoxy-6-methyl-(4,4′-bipyridine)-3-carboxamide]
